What was measured:
AsPC-1 cells = test: In vitro cell viability assay (MTS); format: cell-based; conditions: AsPC-1, 1 hour treatment, MTS after 72 hours
Experimental: About 5×10^3 cells were seeded in 96-well plates and treated with increasing doses of GNP, Gem, and GNP-Gem diluted in respective media. After a 1-hour incubation, cells were washed thrice with PBS, overlaid with 100 μL media containing serum and antibiotics, and incubated for another 72 hours. At the end of the incubation, cell viability was measured using Celltiter 96 Aqueous One Solution Cell Proliferation Assay (Promega) as per the manufacturer's protocol. Briefly, the media containing the treatments were aspirated from the plate and washed with PBS. Then, 100 μL media containing 20 μL One Solution reagent was added to each well. The plate was incubated at 37° C. for 30 minutes, and absorbance at 492 nm was measured using Spectramax i3x. Percentage viability was calculated as follows: Viability (%)=100* (ATreated−ABlank)/(AUntreated−ABlank).
To this end, two commercially available pancreatic cancer cell lines were selected (AsPC-1 and PANC-1, obtained from ATCC). The cells were treated with increasing doses of GNP, Gem, and GNP-Gem for 1 hour. After 1 hour, cells were washed three times with PBS to remove the treatments completely in order to reduce any non-specific effect, and fresh media was added to the cells. The cell viability measurement was performed by MTS assay after 72 hours (FIG. 4A-B).

[1] = test system: luciferase-transfected PANC-1 cells; test: Histological study of harvested tumors (H&E, Ki67); format: in vivo, NOD-SCID-Gamma (NSG) mice
Experimental: (§1) 6-8 weeks old male and female NOD-SCID-Gamma (NSG) mice were obtained from NCI and housed in the institutional animal facilities. About 1×10^6 luciferase-transfected PANC-1 cells suspended in 50 μL PBS were injected orthotopically into the pancreas of the mice. Tumors were allowed to grow for three weeks. Then, mice were randomized into four groups of ten (5 male mice and 5 female mice in each group), and 50 μg/mouse Gem, GNP-Gem with an equivalent Gem amount, or unconjugated GNPs were injected intraperitoneally three times a week for three weeks. Tumor growth was measured weekly using an IVIS bio-imager after injecting Luciferin. After three weeks of treatment, mice were sacrificed, and tumors were harvested, measured with slide calipers, and weighed. Tumor volumes were calculated using the formula: V=0.5 X a X b^2, where ‘a’ is the longest tumor axis, and ‘b’ is the shortest tumor axis.
Tumors were harvested and fixed in neutral buffered 10% formalin at room temperature for 24 hours prior to embedding in paraffin and sectioning. Sections were deparaffinized and then subjected Hematoxylin and Eosin (H&E) and Ki67 staining according to manufacturer's instructions (DAB 150, Millipore). Stable diaminobenzidine was used as a chromogen substrate, and the sections were counterstained with a hematoxylin solution. Slides were digitized with Aperio AT2 slide scanner (Leica) and analyzed with imagescope software (Leica).

[2] = test system: luciferase-transfected PANC-1 cells; test: In vivo tumor growth inhibition, orthotopic PANC-1 xenograft; set-up: species or system NOD-SCID-Gamma (NSG) mice; conditions: after three weeks of treatment
Experimental: as §1
About, 1×10^6 luciferase transfected PANC-1 cells were orthotopically implanted in the pancreas of 6-8 weeks old NSG mice. After three weeks, mice were imaged noninvasively using the Xenogen instrument to confirm tumor growth and then randomized into four groups before the initiation of treatment. Both male and female mice were included in the experiment to delineate any differential sex-dependent therapeutic effect of GNP-Gem. The experiment was terminated after three weeks of treatment. […] FIG. 5C depicts the tumor growth curve as measured by luciferase bioluminescence for female and male mice separately or in combination.

Nc1ccn([C@@H]2O[C@H](CO)[C@@H](O)C2(F)F)c(=O)n1 [Gem, Gemcitabine]
effect on cell viability (AsPC-1 cells): dose dependent effect | percentage of Ki67-positive nuclei, mean ([1]; female and male combined): 31.4% | percentage of Ki67-positive nuclei, median ([1]; female and male combined): 32.07% | percentage of Ki67-positive nuclei, mean ([1]; female mice): 31.3% | percentage of Ki67-positive nuclei, median ([1]; female mice): 32.3% | percentage of Ki67-positive nuclei, mean ([1]; male mice): 31.5% | percentage of Ki67-positive nuclei, median ([1]; male mice): 31.4% | tumor volume, mean ([2]; female and male combined): 251 mm^3 | tumor volume, median ([2]; female and male combined): 250 mm^3 | tumor weight, mean ([2]; female and male combined): 310.86 mg | tumor weight, median ([2]; female and male combined): 280.35 mg | tumor volume, mean ([2]; female mice): 254.8 mm^3 | tumor volume, median ([2]; female mice): 254.6 mm^3 | tumor weight, mean ([2]; female mice): 295.9 mg | tumor weight, median ([2]; female mice): 272.4 mg | tumor volume, mean ([2]; male mice): 247.17 mm^3 | tumor volume, median ([2]; male mice): 245.3 mm^3 | tumor weight, mean ([2]; male mice): 325.8 mg | tumor weight, median ([2]; male mice): 288.3 mg
